Measurements: paper PMC12635197, “Discovery of first-in-class inhibitors of the TRF1:TIN2 protein:protein interaction by fragment screening” (Scientific Reports, 2025)

Molecular target: T1, TRF1TRFH (Homo sapiens, UniProt P54274)
T1 construct: encoding residues 47–268, UniProt identifier P54274-1; His6-MBP (TEV-cleavable) (N, cleaved yes); made in house; host or cells: E. coli BL21-CodonPlus(DE3)-RIL
T1 sequence (P54274 47-268): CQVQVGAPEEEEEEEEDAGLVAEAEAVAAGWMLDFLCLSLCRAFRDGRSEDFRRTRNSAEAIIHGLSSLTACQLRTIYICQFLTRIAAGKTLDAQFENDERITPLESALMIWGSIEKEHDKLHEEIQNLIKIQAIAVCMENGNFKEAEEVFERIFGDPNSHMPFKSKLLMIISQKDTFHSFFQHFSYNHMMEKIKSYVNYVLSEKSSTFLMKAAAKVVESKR
Experiment: LO-NMR R2KD assay
Format: binding
Settings: global KD shared across 1H NMR peaks, single experiment, 95% CI in parentheses; 2 µM TRF1TRFH
Protocol: Recent work by Liu and colleagues introduced a novel LO-NMR method that can be used to quantitatively determine the dissociation constant (KD) of a ligand for a protein from measured R2 values of ligand nuclei at a range of ligand concentrations.
The R2KD assay was carried out as described by Liu et al.[40]. A Bruker SamplePro liquid handler was used to prepare 10 samples: 8 samples containing an increasing ligand concentration from 50 to 500 µM whilst maintaining a constant TRF1TRFH concentration (2 µM final); and two samples containing ligand only at 200 µM and 400 µM. All ten samples were prepared from stock solutions of ligand, DMSO, protein and buffer alone using the Bruker SamplePro liquid handler prior to transfer to 3-mm NMR tubes.
NMR data were collected at 298 K on a Bruker Avance Neo 600-MHz spectrometer using the Bruker Topspin 4.0 software. T2 relaxation experiments were performed using the standard Bruker CPMG pulse program with Excitation Sculpting incorporated to suppress water signal. The spin-echo period (delay-180°-delay) was set to 1 ms (d20 = 500 µs), and the relaxation delay (d1) was set to 10 s. The sudo-2D experiment contained nine slices with the spin echo period repeated at the following times: 4, 20, 100, 200, 300, 500, 700, 1000, and 2000 ms. T2 relaxation data were processed using the MestReNova 14.1 data analysis module to obtain integrals of individual[1]H-NMR signals, which were used to calculate R2 with the equation I = I0e^(−tR2). GraphPad Prism 9.0.0 was used to fit R2 values of individual compound peaks to obtain an overall (shared) KD value from all peaks of the compound.

## COc1cc(COc2ccc(S(=O)(=O)[O-])c3ccccc23)cc(OC)c1.[Na+] [Compound 40]
  Kd: 29 µM
